Reference: ChEMBL document CHEMBL2346657, “Synthesis of novel 2-amino-4-(5'-substituted 2'-phenyl-1H-indol-3'-yl)-6-aryl-4H-pyran-3-carbonitrile derivatives as antimicrobial and antioxidant agents” (2013)
Calls of active or inactive are those of the source. Unless noted, no cut-off for these calls is given here.

Legend:
Format in all cases: functional
[1] = Antioxidant activity assessed as metal chelating activity by measuring inhibition of ferrozine-Fe2+ complex formation at 25 to 100 ug/ml
[2] = Antioxidant activity assessed as ferric ion reducing activity at 75 ug/ml by FRAP assay
[3] = tested on: Radical scavenging activity; assay: Antioxidant activity assessed as DPPH radical scavenging activity at 100 ug/ml
Aspergillus flavus [4] = assay: Antimicrobial activity against Aspergillus flavus MTCC 1973 at 500 ug/ml after 72 hrs by cup plate method; settings: MTCC 1973, 72 h, read-out: IZ
Aspergillus flavus [5] = assay: Antimicrobial activity against Aspergillus flavus MTCC 1973 at 750 ug/ml after 72 hrs by cup plate method; settings: MTCC 1973, 72 h, read-out: IZ
Aspergillus flavus [6] = assay: Antimicrobial activity against Aspergillus flavus MTCC 1973 at 1000 ug/ml after 72 hrs by cup plate method; settings: MTCC 1973, 72 h, read-out: IZ
Aspergillus terreus [7] = assay: Antimicrobial activity against Aspergillus terreus MTCC 1782 at 500 ug/ml after 72 hrs by cup plate method; settings: MTCC 1782, 72 h, read-out: IZ
Aspergillus terreus [8] = assay: Antimicrobial activity against Aspergillus terreus MTCC 1782 at 750 ug/ml after 72 hrs by cup plate method; settings: MTCC 1782, 72 h, read-out: IZ
Aspergillus terreus [9] = assay: Antimicrobial activity against Aspergillus terreus MTCC 1782 at 1000 ug/ml after 72 hrs by cup plate method; settings: MTCC 1782, 72 h, read-out: IZ
Aspergillus oryzae [10] = assay: Antimicrobial activity against Aspergillus oryzae MTCC 3567 at 500 ug/ml after 72 hrs by cup plate method; settings: MTCC 3567, 72 h, read-out: IZ
Aspergillus oryzae [11] = assay: Antimicrobial activity against Aspergillus oryzae MTCC 3567 at 750 ug/ml after 72 hrs by cup plate method; settings: MTCC 3567, 72 h, read-out: IZ
Aspergillus oryzae [12] = assay: Antimicrobial activity against Aspergillus oryzae MTCC 3567 at 1000 ug/ml after 72 hrs by cup plate method; settings: MTCC 3567, 72 h, read-out: IZ
Aspergillus niger [13] = assay: Antimicrobial activity against Aspergillus niger MTCC 281 at 500 ug/ml after 72 hrs by cup plate method; settings: MTCC 281, 72 h, read-out: IZ
Aspergillus niger [14] = assay: Antimicrobial activity against Aspergillus niger MTCC 281 at 750 ug/ml after 72 hrs by cup plate method; settings: MTCC 281, 72 h, read-out: IZ
Aspergillus niger [15] = assay: Antimicrobial activity against Aspergillus niger MTCC 281 at 1000 ug/ml after 72 hrs by cup plate method; settings: MTCC 281, 72 h, read-out: IZ
Pseudomonas aeruginosa [16] = assay: Antimicrobial activity against Pseudomonas aeruginosa MTCC 1688 at 500 ug/ml after 24 hrs by cup plate method; settings: MTCC 1688, 24 h, read-out: IZ
Pseudomonas aeruginosa [17] = assay: Antimicrobial activity against Pseudomonas aeruginosa MTCC 1688 at 750 ug/ml after 24 hrs by cup plate method; settings: MTCC 1688, 24 h, read-out: IZ
Pseudomonas aeruginosa [18] = assay: Antimicrobial activity against Pseudomonas aeruginosa MTCC 1688 at 1000 ug/ml after 24 hrs by cup plate method; settings: MTCC 1688, 24 h, read-out: IZ
Klebsiella pneumoniae [19] = assay: Antimicrobial activity against Klebsiella pneumoniae NCTC 13368 at 500 ug/ml after 24 hrs by cup plate method; settings: NCTC 13368, 24 h, read-out: IZ
Klebsiella pneumoniae [20] = assay: Antimicrobial activity against Klebsiella pneumoniae NCTC 13368 at 750 ug/ml after 24 hrs by cup plate method; settings: NCTC 13368, 24 h, read-out: IZ
Klebsiella pneumoniae [21] = assay: Antimicrobial activity against Klebsiella pneumoniae NCTC 13368 at 1000 ug/ml after 24 hrs by cup plate method; settings: NCTC 13368, 24 h, read-out: IZ
Staphylococcus aureus [22] = assay: Antimicrobial activity against Staphylococcus aureus ATCC 29513 at 500 ug/ml after 24 hrs by cup plate method; settings: ATCC 29513, 24 h, read-out: IZ
Staphylococcus aureus [23] = assay: Antimicrobial activity against Staphylococcus aureus ATCC 29513 at 750 ug/ml after 24 hrs by cup plate method; settings: ATCC 29513, 24 h, read-out: IZ
Staphylococcus aureus [24] = assay: Antimicrobial activity against Staphylococcus aureus ATCC 29513 at 1000 ug/ml after 24 hrs by cup plate method; settings: ATCC 29513, 24 h, read-out: IZ
Escherichia coli [25] = assay: Antimicrobial activity against Escherichia coli MTCC 723 at 500 ug/ml after 24 hrs by cup plate method; settings: MTCC 723, 24 h, read-out: IZ
Escherichia coli [26] = assay: Antimicrobial activity against Escherichia coli MTCC 723 at 750 ug/ml after 24 hrs by cup plate method; settings: MTCC 723, 24 h, read-out: IZ
Escherichia coli [27] = assay: Antimicrobial activity against Escherichia coli MTCC 723 at 1000 ug/ml after 24 hrs by cup plate method; settings: MTCC 723, 24 h, read-out: IZ
[28] = Antioxidant activity assessed as ferric ion reducing activity at 100 ug/ml by FRAP assay
[29] = Antioxidant activity assessed as ferric ion reducing activity at 25 to 75 ug/ml by FRAP assay
[30] = tested on: Radical scavenging activity; assay: Antioxidant activity assessed as DPPH radical scavenging activity at 75 ug/ml

Row | Compound | Activity [1] | zone of inhibition at 500 µg/mL (Aspergillus flavus [4]) | zone of inhibition at 750 µg/mL (Aspergillus flavus [5]) | zone of inhibition at 1000 µg/mL (Aspergillus flavus [6]) | zone of inhibition at 500 µg/mL (Aspergillus terreus [7]) | zone of inhibition at 750 µg/mL (Aspergillus terreus [8]) | zone of inhibition at 1000 µg/mL (Aspergillus terreus [9]) | zone of inhibition at 500 µg/mL (Aspergillus oryzae [10]) | zone of inhibition at 750 µg/mL (Aspergillus oryzae [11]) | zone of inhibition at 1000 µg/mL (Aspergillus oryzae [12]) | zone of inhibition at 500 µg/mL (Aspergillus niger [13]) | zone of inhibition at 750 µg/mL (Aspergillus niger [14]) | zone of inhibition at 1000 µg/mL (Aspergillus niger [15]) | zone of inhibition at 500 µg/mL (Pseudomonas aeruginosa [16]) | zone of inhibition at 750 µg/mL (Pseudomonas aeruginosa [17]) | zone of inhibition at 1000 µg/mL (Pseudomonas aeruginosa [18]) | zone of inhibition at 500 µg/mL (Klebsiella pneumoniae [19]) | zone of inhibition at 750 µg/mL (Klebsiella pneumoniae [20]) | zone of inhibition at 1000 µg/mL (Klebsiella pneumoniae [21]) | zone of inhibition at 500 µg/mL (Staphylococcus aureus [22]) | also measured
1 | Nc1nc(=O)[nH]c2c1C(c1c(-c3ccccc3)[nH]c3ccc(Cl)cc13)C=C(c1ccc(Cl)cc1)O2 (stereo not drawn) | Active | 6 mm | 6 mm | 4 mm | 9 mm | 9 mm | 9 mm | 9 mm | 9 mm | 9 mm | 12 mm | 12 mm | 13 mm | 9 mm | 9 mm | 9 mm | 9 mm | 9 mm | 9 mm | 13 mm | Activity [2]: Active; Activity [3]: 75.5%; zone of inhibition at 750 µg/mL (Staphylococcus aureus [23]): 13 mm; zone of inhibition at 1000 µg/mL (Staphylococcus aureus [24]): 14 mm; zone of inhibition at 500 µg/mL (Escherichia coli [25]): 9 mm; zone of inhibition at 750 µg/mL (Escherichia coli [26]): 10 mm; zone of inhibition at 1000 µg/mL (Escherichia coli [27]): 10 mm
2 | Cc1ccc(C2=CC(c3c(-c4ccccc4)[nH]c4ccc(Cl)cc34)c3c(N)n[nH]c3O2)cc1 (stereo not drawn) | Active | 3 mm | 3 mm | 3 mm | 5 mm | 4 mm | 4 mm | 8 mm | 5 mm | 5 mm | 9 mm | 8 mm | 0 mm | 12 mm | 12 mm | 13 mm | 12 mm | 12 mm | 12 mm | 14 mm | Activity [28]: Active; zone of inhibition at 750 µg/mL (Staphylococcus aureus [23]): 14 mm; zone of inhibition at 1000 µg/mL (Staphylococcus aureus [24]): 14 mm; zone of inhibition at 500 µg/mL (Escherichia coli [25]): 4 mm; zone of inhibition at 750 µg/mL (Escherichia coli [26]): 2 mm; zone of inhibition at 1000 µg/mL (Escherichia coli [27]): 2 mm
3 | Cc1ccc2[nH]c(-c3ccccc3)c(C3C=C(c4ccccc4)Oc4nc[nH]c(=O)c43)c2c1 (stereo not drawn) | Active | 8 mm | 8 mm | 8 mm | 4 mm | 3 mm | 3 mm | 9 mm | 9 mm | 9 mm | 5 mm | 4 mm | 4 mm | 5 mm | 5 mm | 5 mm | 5 mm | 5 mm | 5 mm | 11 mm | Activity [28]: Active; zone of inhibition at 750 µg/mL (Staphylococcus aureus [23]): 10 mm; zone of inhibition at 1000 µg/mL (Staphylococcus aureus [24]): 10 mm; zone of inhibition at 500 µg/mL (Escherichia coli [25]): 8 mm; zone of inhibition at 750 µg/mL (Escherichia coli [26]): 6 mm; zone of inhibition at 1000 µg/mL (Escherichia coli [27]): 6 mm
4 | Cc1ccc2[nH]c(-c3ccccc3)c(C3C=C(c4ccc(Cl)cc4)Oc4[nH]c(=S)nc(N)c43)c2c1 (stereo not drawn) | Active | 3 mm | 3 mm | 4 mm | 3 mm | 3 mm | 10 mm | 9 mm | 8 mm | 9 mm | 5 mm | 5 mm | 3 mm | 9 mm | 9 mm | 9 mm | 5 mm | 3 mm | 5 mm | 9 mm | Activity [29]: Active; zone of inhibition at 750 µg/mL (Staphylococcus aureus [23]): 9 mm; zone of inhibition at 1000 µg/mL (Staphylococcus aureus [24]): 11 mm; zone of inhibition at 500 µg/mL (Escherichia coli [25]): 4 mm; zone of inhibition at 750 µg/mL (Escherichia coli [26]): 3 mm; zone of inhibition at 1000 µg/mL (Escherichia coli [27]): 3 mm
5 | Cc1ccc(C2=CC(c3c(-c4ccccc4)[nH]c4ccc(Cl)cc34)c3c(nc4oc(=O)c(C#N)c(N)c4c3N)O2)cc1 (stereo not drawn) | Active | 6 mm | 5 mm | 3 mm | 3 mm | 3 mm | 3 mm | 10 mm | 10 mm | 10 mm | 0 mm | 0 mm | 3 mm | 2 mm | 2 mm | 2 mm | 8 mm | 8 mm | 8 mm | 5 mm | Activity [30]: Active; zone of inhibition at 750 µg/mL (Staphylococcus aureus [23]): 3 mm; zone of inhibition at 1000 µg/mL (Staphylococcus aureus [24]): 3 mm; zone of inhibition at 500 µg/mL (Escherichia coli [25]): 12 mm; zone of inhibition at 750 µg/mL (Escherichia coli [26]): 10 mm; zone of inhibition at 1000 µg/mL (Escherichia coli [27]): 9 mm
6 | Nc1nc(=S)[nH]c2c1C(c1c(-c3ccccc3)[nH]c3ccc(Cl)cc13)C=C(c1ccc(Cl)cc1)O2 (stereo not drawn) | Active | 5 mm | 4 mm | 11 mm | 2 mm | 3 mm | 3 mm | 9 mm | 10 mm | 0 mm | 11 mm | 11 mm | 14 mm | 10 mm | 10 mm | 11 mm | 5 mm | 5 mm | 8 mm | 13 mm | Activity [30]: Active; zone of inhibition at 750 µg/mL (Staphylococcus aureus [23]): 13 mm; zone of inhibition at 1000 µg/mL (Staphylococcus aureus [24]): 13 mm; zone of inhibition at 500 µg/mL (Escherichia coli [25]): 10 mm; zone of inhibition at 750 µg/mL (Escherichia coli [26]): 10 mm; zone of inhibition at 1000 µg/mL (Escherichia coli [27]): 11 mm
7 | Nc1n[nH]c2c1C(c1c(-c3ccccc3)[nH]c3ccccc13)C=C(c1ccc(Cl)cc1)O2 (stereo not drawn) | Active | 9 mm | 9 mm | 9 mm | 8 mm | 6 mm | 11 mm | 12 mm | 12 mm | 13 mm | 7 mm | 5 mm | 3 mm | 10 mm | 10 mm | 10 mm | 5 mm | 5 mm | 5 mm | 5 mm | Activity [2]: Active; zone of inhibition at 750 µg/mL (Staphylococcus aureus [23]): 4 mm; zone of inhibition at 1000 µg/mL (Staphylococcus aureus [24]): 3 mm; zone of inhibition at 500 µg/mL (Escherichia coli [25]): 13 mm; zone of inhibition at 750 µg/mL (Escherichia coli [26]): 13 mm; zone of inhibition at 1000 µg/mL (Escherichia coli [27]): 14 mm
